Like-named read-outs stand apart in the source and are kept apart here. Square brackets hold non-standard residues; d marks the D form. Peptide text beside a SMILES is read from it. * marks the point of attachment. Adamantane1carbonyl = O=C(C12CC3CC(CC(C3)C1)C2)*; Oic = O=C(O)[C@@H]1C[C@@H]2CCCC[C@@H]2N1; dIgl = N[C@@H](C(=O)O)C1Cc2ccccc2C1; Hyp = O=C(O)[C@@H]1C[C@@H](O)CN1
Tests used:
guinea pig ileum = system: guinea pig ileum
Source text: (§1) A change of one unit of pA2 value represents an order of magnitude change in potency.
(§2) On isolated smooth muscles, agonist potency is given as percent of BK potency; antagonist potency is given as pA2, and is underlined. In blood pressure assays, the number is the dose of peptide in micrograms that causes 50% reduction in the effect of BK intraarterially administered as a bolus mixture in a 500 g male rat; Ag indicates unquantitated agonist activity; Ant indicates unquantitated antagonist activity.

isolated rat uterus = system: isolated rat uterus
Source text: as §1, §2

B2 receptors = B2 receptors (Canis lupus familiaris, UniProt Q9BDQ4); settings: anaesthetized dog, i.v. infusion, BK challenge, n=3
Sequence of B2 receptors (Q9BDQ4 1-392): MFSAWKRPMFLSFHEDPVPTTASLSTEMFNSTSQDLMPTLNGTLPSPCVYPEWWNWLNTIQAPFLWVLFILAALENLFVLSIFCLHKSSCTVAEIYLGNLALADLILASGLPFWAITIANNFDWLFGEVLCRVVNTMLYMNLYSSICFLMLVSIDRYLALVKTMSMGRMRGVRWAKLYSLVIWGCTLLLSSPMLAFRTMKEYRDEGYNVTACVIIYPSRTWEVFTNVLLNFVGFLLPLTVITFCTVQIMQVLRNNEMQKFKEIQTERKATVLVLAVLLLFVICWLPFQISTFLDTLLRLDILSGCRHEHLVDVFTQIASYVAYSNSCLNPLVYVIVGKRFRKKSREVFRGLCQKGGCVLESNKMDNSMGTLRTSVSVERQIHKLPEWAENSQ
Method: Mongrel dogs of either sex, weight range 10-15 kg were used. These were anaesthetized with pentobarbital, 30 mg/kg i.v., and catheters were placed in one femoral artery and both femoral veins for the recording of blood pressure and infusion and injection of compounds.

B1 receptors [1] = target: T1, B1 receptors (Oryctolagus cuniculus, UniProt P48748); test: B1 receptor bioassay, rabbit aorta strips contracted with des-Arg9-BK; type: cell-based; settings: 50% reduction of sustained contraction to 10^-7 M des-Arg9-BK; read-out: Rabbit Aorta p IC50 B1 receptors (converted)
T1 construct: The thorax was opened and the thoracic aorta carefully removed; from tissue; host or cells: rabbit thoracic aorta spiral strips
T1 sequence (P48748 1-352): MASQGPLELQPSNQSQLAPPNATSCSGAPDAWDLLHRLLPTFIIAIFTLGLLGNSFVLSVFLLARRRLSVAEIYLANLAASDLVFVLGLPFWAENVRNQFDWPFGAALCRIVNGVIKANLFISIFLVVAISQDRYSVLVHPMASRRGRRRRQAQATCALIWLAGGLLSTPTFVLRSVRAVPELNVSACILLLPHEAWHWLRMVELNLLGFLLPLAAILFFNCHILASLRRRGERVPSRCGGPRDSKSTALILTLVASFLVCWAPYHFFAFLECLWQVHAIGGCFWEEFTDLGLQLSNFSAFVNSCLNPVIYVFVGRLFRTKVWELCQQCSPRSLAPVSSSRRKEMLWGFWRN
Method: Male New Zealand white rabbits, weight range 2-3 kg, were killed by an overdose of pentobarbital i.v. The thorax was opened and the thoracic aorta carefully removed. […] The tissues were placed under 1 gm isometric tension and allowed to equilibrate for 1H. At time 1h, a concentration-effect curve was constructed to the selective B1 agonist des-Arg^9 -BK. This was repeated at time 3 hours. […] Once the contraction was sustained, the compound to be assayed was applied to the tissue bath in a cumulative manner. The concentration of the compound which produced a 50% reduction of the sustained contraction was calculated. The negative logarithm of this concentration was calculated and expressed as the […].

B1 receptors [2] = target: T2, B1 receptors (Canis lupus familiaris, UniProt Q9BDQ5); test: Dog blood pressure, hypotensive response to des-Arg9-BK; type: in vivo; settings: anaesthetized dog, i.v. infusion, des-Arg9-BK challenge, n=3
T2 construct: Mongrel dogs of either sex, weight range 10-15 kg were used; from tissue; host or cells: anaesthetized mongrel dog, whole animal
T2 sequence (Q9BDQ5 1-350): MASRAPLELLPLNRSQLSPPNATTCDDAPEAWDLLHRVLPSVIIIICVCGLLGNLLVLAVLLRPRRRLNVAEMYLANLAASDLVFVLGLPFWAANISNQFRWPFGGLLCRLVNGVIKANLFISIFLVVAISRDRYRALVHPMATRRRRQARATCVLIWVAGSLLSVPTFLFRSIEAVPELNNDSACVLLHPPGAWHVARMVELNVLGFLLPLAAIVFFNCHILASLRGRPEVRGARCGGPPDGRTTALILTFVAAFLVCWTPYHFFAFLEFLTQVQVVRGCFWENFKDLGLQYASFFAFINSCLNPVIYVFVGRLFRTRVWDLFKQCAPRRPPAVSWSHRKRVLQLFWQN

[3] = system: hypotensive action of bradykinin; test: Blood pressure in the anesthetized rat: inhibition of hypotensive action of bradykinin; type: in vivo; settings: intraarterial bolus mixture with BK, 500 g male rat; indicated approximately
Source text: Potencies for the antagonists in this assay are not reported precisely, but rather are indicated approximately.
as §2

Human B2 receptors = target: T3, Human B2 receptors (Homo sapiens, UniProt P30411); test: Human B2 binding, cloned receptor in CHO cell membranes, 3H-bradykinin; settings: CHO clone S34f membranes, 0.3 nM 3H-Bradykinin, room temperature 45 min; read-out: Human Receptor Clone B2 receptor binding (Ki) (converted)
T3 construct: expressed in transfected cells; membranes used
T3 sequence (P30411 1-364 isoform P30411-2): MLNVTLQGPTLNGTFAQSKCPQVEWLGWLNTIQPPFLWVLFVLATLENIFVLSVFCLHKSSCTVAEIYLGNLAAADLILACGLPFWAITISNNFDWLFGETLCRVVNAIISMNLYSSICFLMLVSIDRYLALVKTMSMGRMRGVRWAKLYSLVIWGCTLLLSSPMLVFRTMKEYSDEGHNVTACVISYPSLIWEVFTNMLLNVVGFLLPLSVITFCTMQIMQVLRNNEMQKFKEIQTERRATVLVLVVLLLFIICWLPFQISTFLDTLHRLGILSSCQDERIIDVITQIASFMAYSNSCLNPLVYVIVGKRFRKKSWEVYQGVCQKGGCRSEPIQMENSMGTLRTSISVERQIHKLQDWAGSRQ
Source text: Human B2 receptors were cloned and expressed in Chinese hamster ovary cells. RNA was isolated from human lung fibroblasts (CCD-16 LU obtained from the ATCC) using the method of Chirgwin et al (Biochemistry 18:5294 (1979)). The RNA was transcribed into cDNA using MMLV reverse transcriptase, the primer […] and the procedure of Maniatis (Molecular Cloning Cold Spring Harbor Laboratory (1982)). The human B2 receptor cDNA was selectively amplified using nested PCR. The first round PCR used the two primers […] and […] and Taq DNA polymerase (Promega). Twenty-five rounds of PCR were done using the following conditions: 94° C., 1 minute for denaturation, 50° C., 1 minute for annealing followed by 72° C., 3 minutes for extension. Excess primers were removed with a Centricon 30 miniconcentrator. A portion of this first round reaction was used as a template in a second round of PCR using the following primers […] and […]. The number of rounds of PCR and the conditions were the same as those used for the first round. The DNA obtained after this second round was digested with the restriction enzymes Hind III and Xba I using standard methodology. Cesium chloride-purified pRc/CMV (Invitrogen) was also digested with Hind III and Xba I using standard methodology. The products of the two digests were resolved on a 1% low melt agarose gel. The human B2 receptor DNA (approximately 1.1 kb) and the pRc/CMV DNA (approximately 5.5 kb) were excised from the gel. The gel slices containing these DNAs were heated at 65° C. and aliquots combined in a reaction containing T4 DNA ligase. The reaction was incubated overnight at 15° C.
An aliquot of this reaction was used to transform frozen competent E. coli DH5α cells (GibcoBRL). Transformants containing the human B2 receptor DNA were selected on LB+amp plates. One of the transformants was selected and the sequence of the human B2 receptor DNA insert determined using the Sequenase enzyme (United States Biochemical) according to the manufacturer's instructions. This sequence was compared to the sequence of Hess et al (Biochemical and Biophysical Research Communications 184:260 1992)). […] The human BK2 receptor-pRc/CMV plasmid was transfected into CHO-k1 cells using the Lipofectamine reagent (GibcoBRL).
Cells containing the receptor were grown to confluence and harvested by scraping into PBS and homogenized. Membranes were prepared by centrifugation in 25 mM TES pH6.8 containing 1 mM 1.10 Phenanthroline. The final pellet was resuspended in assay buffer (25 mM TES, 1 mM 1.10 Phenanthroline, 1 mM DTT, […] Captopril, 0.1% BSA pH=6.8) and frozen. […] Incubation was carried out at room temperature for 45 min. The assay was terminated by filtration through a polyethylenimine soaked G-A filter. Radioactivity was measured on a Wallac 1450 MicroBeta LSC.
The Kd for the receptor was determined by kinetic analysis of on and off rates utilizing a single exponential decay off rate. Ki 's for compounds were calculated using the following equation: Ki =IC50 /(1+[L]/Kd), where L=free ligand concentration.

[4] = guinea pig ileum, vs double ED50 dose of bradykinin

Compound | Ileum Activity, antagonist potency given as pA2 (guinea pig ileum) | Uterus Activity, antagonist potency given as pA2 (isolated rat uterus) | Mean ED50, B2 receptor-mediated hypotensive response (B2 receptors) | IC50 (B1 receptors [1]) | Mean ED50, B1 receptor-mediated hypotensive response (B1 receptors [2]) | Blood Pressure: dose of peptide that causes 50% reduction in the effect of BK [3] | Ileum Activity, antagonist potency given as pA2 (guinea pig ileum; [4]) | Uterus Activity, agonist potency given as percent of BK potency (isolated rat uterus; isolated rat uterus) | Ki (Human B2 receptors)
N=C(N)NCCC[C@@H](N)C(=O)N[C@@H](CCCNC(=N)N)C(=O)N1CCC[C@H]1C(=O)N1C[C@H](O)C[C@H]1C(=O)NCC(=O)N[C@H](C(=O)N[C@@H](CO)C(=O)N[C@@H](C(=O)N1[C@H](C(=O)N[C@@H](CCCNC(=N)N)C(=O)O)C[C@@H]2CCCC[C@@H]21)C1Cc2ccccc2C1)C1Cc2ccccc2C1 [Compound 1, DArg-Arg-Pro-Hyp-Gly-Iglb-Ser-DIglb-O ic-Arg] | 7.9 | 8.5 | 0.03 mg/kg/min | 251 nM | 0.24 mg/kg/min | – | – | – | –
N=C(N)NCCC[C@@H](N)C(=O)N[C@@H](CCCNC(=N)N)C(=O)N1CCC[C@H]1C(=O)N1C[C@H](O)C[C@H]1C(=O)NCC(=O)N[C@@H](Cc1cccs1)C(=O)N[C@@H](CO)C(=O)N[C@@H](C(=O)N1[C@H](C(=O)N[C@@H](CCCNC(=N)N)C(=O)O)C[C@@H]2CCCC[C@@H]21)C1Cc2ccccc2C1 [Compound 7, DArg-Arg-Pro-Hyp-Gly-Thi-Ser-DIglb-Oic-Arg] | 7.4 | – | 0.17 mg/kg/min | 141 nM | 0.35 mg/kg/min | – | – | – | –
N=C(N)NCCC[C@@H](N)C(=O)N[C@@H](CCCNC(=N)N)C(=O)N1CCC[C@H]1C(=O)N1C[C@H](O)C[C@H]1C(=O)NCC(=O)N[C@@H](Cc1cccs1)C(=O)N[C@@H](CO)C(=O)N[C@@H](C(=O)N(CC(=O)N[C@@H](CCCNC(=N)N)C(=O)O)C1Cc2ccccc2C1)C1Cc2ccccc2C1 [Compound 28, DArg-Arg-Pro-Hyp-Gly-Thi-Ser-DIgl-Nigb-Arg] | – | – | – | – | – | 0.05 micrograms | 6.5 | 48.6% | –
N=C(N)NCCC[C@H](NC(=O)[C@@H]1C[C@@H]2CCCC[C@@H]2N1C(=O)[C@H](NC(=O)[C@H](CO)NC(=O)[C@H](Cc1ccccc1)NC(=O)CNC(=O)[C@@H]1C[C@@H](O)CN1C(=O)[C@@H]1CCCN1C(=O)[C@H](CCCNC(=N)N)NC(=O)[C@@H](CCCNC(=N)N)NC(=O)C12CC3CC(CC(C3)C1)C2)C1Cc2ccccc2C1)C(=O)O [Compound 53, Aca-DArg-Arg-Pro-Hyp-Gly-Phe-Ser-DIglb-Oic-Arg] (Adamantane1carbonyl-[dR]RP[Hyp]GFS[dIgl][Oic]R-OH) | 7.4 | 8.2 | – | 1260 nM | – | – | – | – | 0.0141 nM
N=C(N)NCCC[C@H](NC(=O)[C@@H]1C[C@@H]2CCCC[C@@H]2N1C(=O)[C@H](NC(=O)[C@H](CO)NC(=O)[C@H](Cc1cccs1)NC(=O)CNC(=O)[C@@H]1C[C@@H](O)CN1C(=O)[C@@H]1CCCN1C(=O)[C@H](CCCNC(=N)N)NC(=O)[C@@H](CCCNC(=N)N)NC(=O)CC12CC3CC(CC(C3)C1)C2)C1Cc2ccccc2C1)C(=O)O [Compound 56, Aaa-DArg-Arg-Pro-Hyp-Gly-Thi-Ser-DIglb-Oic-Arg] | 7.8 | 7.7 | – | 692 nM | – | – | – | – | 0.398 nM
COc1cc(C=CC(=O)N[C@H](CCCNC(=N)N)C(=O)N[C@@H](CCCNC(=N)N)C(=O)N2CCC[C@H]2C(=O)N2C[C@H](O)C[C@H]2C(=O)NCC(=O)N[C@@H](Cc2cccs2)C(=O)N[C@@H](CO)C(=O)N[C@@H](C(=O)N2[C@H](C(=O)N[C@@H](CCCNC(=N)N)C(=O)O)C[C@@H]3CCCC[C@@H]32)C2Cc3ccccc3C2)cc(OC)c1O [Compound 60, Sin-DArg-Arg-Pro-Hyp-Gly-Thi-Ser-DIglb-Oic-Arg] | 7.3 | 8.3 | – | 2090 nM | – | – | – | – | 0.0692 nM
Aca-DArg-Arg-Pro-Hyp-Gly-Thi-Ser-DHigb-Oic-Arg [Compound 124] | – | – | – | – | – | 0 micrograms | 7.7 | – | –
DArg-Arg-Pro-Hyp-Gly-Thi-Ser-DIglb-Dic-Arg [Compound 41] | – | – | – | – | – | 50 micrograms | – | – | –

Reference: patent US5648336A (University of Colorado, priority 1994, dated 1997)
